In PubChem BioAssay AID1963846 (Molecular Pharmacology Branch, DTP, NCI, 2024):

Tested on: 454973-116-R2-J3-PDC complex spheroid viability
Assay: Anticancer human tumor 454973-116-R2-J3-PDC patient-derived pancreatic carcinoma cell line growth inhibition [POLQ]
Conditions: for IC50: curve of first compound; for viability, T/C: stronger effect = lower value
Protocol: Multicellular complex tumor spheroid response to Polymerase (POL) inhibitors (novobiocin, ART-558, RP6685) in combination with a variety of drugs and investigational agents in selected tumor cell lines
The POL inhibitors (novobiocin, ART-558, and RP6685) were evaluated both individually and in combination with standard of care and investigational anticancer small molecules within a complex spheroid model of solid tumors. . Complex spheroids include a stromal component modeled by human endothelial cells (HUVEC) and fibroblasts modeled by human mesenchymal stem cells (MSCs). The concentration ranges selected for each drug and investigational agent were based upon clinically achievable concentrations if the clinical Cmax of the agent was known.
Compounds. The drugs and investigational agents: novobiocin (NSC847541), ART-558 (NSC835418), RP-6685 (NSC848927), peposertib (NSC802822), ceralasertib (NSC780249), elimusertib (NSC800525), camonsertib (NSC841442), AZD-1390 (NSC803789), olaparib (NSC753686), talazoparib (NSC767125), rucaparib (NSC756644), sotorasib (NSC818433), MRTX-1133 (NSC836407), SN-38 (NSC673596), topotecan (NSC609699), epotoside (NSC141540), doxorubicin (NSC123127), gemcitabine (NSC613327), 5-fluorouracil (NSC19893), paclitaxel (NSC125973), vemurafenib (NSC761431), MSA-2 (NSC828583), SN-011 (NSC837082), adavosertib (NSC754352), prexasertib (NSC758257), carboplatin (NSC241240) and oxaliplatin (NSC266046), were obtained from the National Cancer Institute (NCI) Developmental Therapeutics Program Chemical Repository (21). The FDA-approved anticancer drug set is available from the Developmental Therapeutics Program at https://dtp.cancer.gov/organization/dscb/obtaining/. […] The stock solutions were prepared in dimethyl sulfoxide (DMSO, Sigma-Aldrich, St. Louis, MO, cat. D2650), except for the platinum compounds which were prepared in saline (Quality Biological, Gaithersburg, MD, cat. 114-055-101), at 800-fold the tested concentration and stored at -70 degrees C prior to their use. All drugs and investigational agents were tested over a range starting from a high concentration at or near the clinical Cmax and decreasing in half-log increments. If the clinical Cmax for an agent had not been determined, the highest concentration tested was 10 microM, except for SN-38, which was tested at a high concentration of 1 microM.
Cell Culture. All cells were maintained in an incubator at 37 degrees C and 5% CO2 with 95% humidity. The PDC lines were cultured according to standard operating procedures established by the NCI PDMR (https://pdmr.cancer.gov). Table 3 of the manuscript, lists the cell lines along with the number of the three cell types plated to form the mct-spheroids and media for tumor cell growth. After thawing, all PDC lines, except 997537-175-T-J1-PDC and 415267-285-R-J2-PDC, were cultured in Matrigel-coated flasks prepared with a working solution of 1X Ham's F-12 nutrient mix, without supplementation (Thermo Fisher Scientific, cat. 11765054), 100 U/mL penicillin-streptomycin (Thermo Fisher Scientific, cat. 15140122), and 2.5% Matrigel (Corning Inc., Corning, NY, cat. 354248) for the first three passages. The two PDC lines 997537-175-T-J1-PDC and 415267-285-R-J2-PDC were cultured on uncoated flasks. The 857933-349-R-J2-PDC line was cultured in 6C/Colon 1B media containing advanced DMEM/F-12 (Thermo Fisher Scientific, cat. 12634028), 10 mM HEPES (Thermo Fisher Scientific, cat. 15630080), 1X GlutaMAX supplement (Thermo Fisher Scientific, cat. 35050061), 0.1 mg/mL primocin (InvivoGen, San Diego, CA, cat. ant-pm-2), 10% defined fetal bovine serum, heat inactivated (HyClone Laboratories Inc., Logan, UT, cat. SH30070.03HI), 50% L-WRN conditioned media (ATCC, cat. CRL-3276), 1.25 mM N-Acetyl-L-cysteine (Sigma-Aldrich, cat. A9165), 10 mM nicotinamide (Sigma-Aldrich, cat. N0636), 1X B-27 supplement (Thermo Fisher Scientific, cat. 17504044), 1X N-2 supplement (Thermo Fisher Scientific, cat. […]

[1] = second compound 0.0316 µM, first compound 0.0316 µM
[2] = second compound 0.0316 µM, first compound 0.1 µM
[3] = second compound 0.0316 µM, first compound 0.316 µM
[4] = second compound 0.0316 µM, first compound 1 µM
[5] = second compound 0.0316 µM, first compound 3.16 µM
[6] = second compound 0.0316 µM, first compound 10 µM
[7] = second compound 0.1 µM, first compound 0.0316 µM
[8] = second compound 0.1 µM, first compound 0.1 µM
[9] = second compound 0.1 µM, first compound 0.316 µM
[10] = second compound 0.1 µM, first compound 1 µM
[11] = second compound 0.1 µM, first compound 3.16 µM
[12] = second compound 0.1 µM, first compound 10 µM
[13] = second compound 0.316 µM, first compound 0.0316 µM
[14] = second compound 0.316 µM, first compound 0.1 µM
[15] = second compound 0.316 µM, first compound 0.316 µM
[16] = second compound 0.316 µM, first compound 1 µM
[17] = second compound 0.316 µM, first compound 3.16 µM
[18] = second compound 0.316 µM, first compound 10 µM
[19] = second compound 1 µM, first compound 0.0316 µM
[20] = second compound 1 µM, first compound 0.1 µM
[21] = second compound 1 µM, first compound 0.316 µM
[22] = second compound 1 µM, first compound 1 µM
[23] = second compound 1 µM, first compound 3.16 µM
[24] = second compound 1 µM, first compound 10 µM
[25] = second compound 3.16 µM, first compound 0.0316 µM
[26] = second compound 3.16 µM, first compound 0.1 µM
[27] = second compound 3.16 µM, first compound 0.316 µM
[28] = second compound 3.16 µM, first compound 1 µM
[29] = second compound 3.16 µM, first compound 3.16 µM
[30] = second compound 3.16 µM, first compound 10 µM
[31] = second compound 10 µM, first compound 0.0316 µM
[32] = second compound 10 µM, first compound 0.1 µM
[33] = second compound 10 µM, first compound 0.316 µM
[34] = second compound 10 µM, first compound 1 µM
[35] = second compound 10 µM, first compound 3.16 µM
[36] = second compound 10 µM, first compound 10 µM
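Note: spheroids exposed to drugs for seven days before measurement.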
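Throughout, for viability, T/C: percent viability relative to DMSO vehicle control wells taken as 100%.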

Structure (SMILES): CC(C)n1c(=O)n(C)c2cnc3cc(F)c(-c4ccc(OCCCN5CCCCC5)nc4)cc3c21 + COC1C(OC(N)=O)C(O)C(Oc2ccc3c(O)c(NC(=O)c4ccc(O)c(CC=C(C)C)c4)c(=O)oc3c2C)OC1(C)C
- IC50 (second compound 0.0316 µM): > 10 µM
- IC50 (second compound 0.1 µM): > 10 µM
- IC50 (second compound 0.316 µM): > 10 µM
- IC50 (second compound 1 µM): > 10 µM
- IC50 (second compound 3.16 µM): > 10 µM
- IC50 (second compound 10 µM): > 10 µM
- viability, T/C [1]: 99.5%
- viability, T/C [2]: 108%
- viability, T/C [3]: 114%
- viability, T/C [4]: 110%
- viability, T/C [5]: 111%
- viability, T/C [6]: 85.9%
- viability, T/C [7]: 107%
- viability, T/C [8]: 112%
- viability, T/C [9]: 108%
- viability, T/C [10]: 114%
- viability, T/C [11]: 93.7%
- viability, T/C [12]: 95.6%
- viability, T/C [13]: 115%
- viability, T/C [14]: 113%
- viability, T/C [15]: 113%
- viability, T/C [16]: 116%
- viability, T/C [17]: 105%
- viability, T/C [18]: 88%
- viability, T/C [19]: 116%
- viability, T/C [20]: 107%
- viability, T/C [21]: 115%
- viability, T/C [22]: 112%
- viability, T/C [23]: 100%
- viability, T/C [24]: 93.8%
- viability, T/C [25]: 118%
- viability, T/C [26]: 107%
- viability, T/C [27]: 112%
- viability, T/C [28]: 116%
- viability, T/C [29]: 106%
- viability, T/C [30]: 92.5%
- viability, T/C [31]: 120%
- viability, T/C [32]: 103%
- viability, T/C [33]: 101%
- viability, T/C [34]: 107%
- viability, T/C [35]: 101%
- viability, T/C [36]: 84.9%

Structure (SMILES): CCc1cc2c(N3CCc4c(cc(Cn5ccnc5)cc4-c4cn(C)nc4C(F)(F)F)C3=O)cc(C)nc2c(OC)n1 + COC1C(OC(N)=O)C(O)C(Oc2ccc3c(O)c(NC(=O)c4ccc(O)c(CC=C(C)C)c4)c(=O)oc3c2C)OC1(C)C
- IC50 (second compound 0.0316 µM): > 10 µM
- IC50 (second compound 0.1 µM): > 10 µM
- IC50 (second compound 0.316 µM): > 10 µM
- IC50 (second compound 1 µM): > 10 µM
- IC50 (second compound 3.16 µM): > 10 µM
- IC50 (second compound 10 µM): > 10 µM
- viability, T/C [1]: 111%
- viability, T/C [2]: 93.7%
- viability, T/C [3]: 91.5%
- viability, T/C [4]: 87.9%
- viability, T/C [5]: 87.2%
- viability, T/C [6]: 75.1%
- viability, T/C [7]: 94.1%
- viability, T/C [8]: 107%
- viability, T/C [9]: 95.2%
- viability, T/C [10]: 91.2%
- viability, T/C [11]: 81%
- viability, T/C [12]: 71%
- viability, T/C [13]: 101%
- viability, T/C [14]: 103%
- viability, T/C [15]: 91.8%
- viability, T/C [16]: 94.1%
- viability, T/C [17]: 83.6%
- viability, T/C [18]: 73.2%
- viability, T/C [19]: 110%
- viability, T/C [20]: 95%
- viability, T/C [21]: 105%
- viability, T/C [22]: 98%
- viability, T/C [23]: 84.7%
- viability, T/C [24]: 76.3%
- viability, T/C [25]: 109%
- viability, T/C [26]: 102%
- viability, T/C [27]: 93.9%
- viability, T/C [28]: 88.2%
- viability, T/C [29]: 85.9%
- viability, T/C [30]: 70.3%
- viability, T/C [31]: 103%
- viability, T/C [32]: 90.5%
- viability, T/C [33]: 89.6%
- viability, T/C [34]: 85.3%
- viability, T/C [35]: 84%
- viability, T/C [36]: 67.6%

Structure (SMILES): COc1cc(C2c3cc4c(cc3C(OC3OC5COC(C)OC5C(O)C3O)C3COC(=O)C23)OCO4)cc(OC)c1O (stereo unspecified) + Cc1cccc(N(C)C(=O)C2C(O)CCN2c2nc(C)cc(C(F)(F)F)c2C#N)c1
- IC50 (second compound 0.0316 µM): 1.5 µM
- IC50 (second compound 0.1 µM): 1.52 µM
- IC50 (second compound 0.316 µM): 1.36 µM
- IC50 (second compound 1 µM): 1.3 µM
- IC50 (second compound 3.16 µM): 1.07 µM
- IC50 (second compound 10 µM): 0.886 µM
- viability, T/C [1]: 97.9%
- viability, T/C [2]: 108%
- viability, T/C [3]: 87.6%
- viability, T/C [4]: 66.1%
- viability, T/C [5]: 23.4%
- viability, T/C [6]: 10.1%
- viability, T/C [7]: 102%
- viability, T/C [8]: 99.5%
- viability, T/C [9]: 89.6%
- viability, T/C [10]: 65.8%
- viability, T/C [11]: 24%
- viability, T/C [12]: 11.7%
- viability, T/C [13]: 101%
- viability, T/C [14]: 102%
- viability, T/C [15]: 87.7%
- viability, T/C [16]: 61.5%
- viability, T/C [17]: 21.8%
- viability, T/C [18]: 9.93%
- viability, T/C [19]: 111%
- viability, T/C [20]: 104%
- viability, T/C [21]: 88.3%
- viability, T/C [22]: 60.6%
- viability, T/C [23]: 21.1%
- viability, T/C [24]: 11.1%
- viability, T/C [25]: 106%
- viability, T/C [26]: 92.9%
- viability, T/C [27]: 82.1%
- viability, T/C [28]: 52.5%
- viability, T/C [29]: 23.1%
- viability, T/C [30]: 13.2%
- viability, T/C [31]: 111%
- viability, T/C [32]: 105%
- viability, T/C [33]: 78.5%
- viability, T/C [34]: 47%
- viability, T/C [35]: 21.7%
- viability, T/C [36]: 10.5%
